For data set [1], the system named is senescent cells in the liver. Nature of the data set: Systemic delivery to aged mice, liver SA-β-gal. The class given is in vivo, mouse. Particulars: aged mice (82 weeks), 3 mg ES2 via tail vein weekly for three weeks, n=5, p=0.03. As to the method:
Senescent and dividing cells or tissue sections were fixed with 4% formaldehyde. The cells were washed with PBS twice before staining with X-gal solution [1 mg/mL 5-bromo-4-chloro-3inolyl-β-D-galactoside (Boehringer Manneheim #745-740) in N,N-dimethylformamide, 5 mM potassium ferricyanide crystalline (#P-8131), 5 mM potassium […] (#P-3289), 2 mM magnesium chloride, and 1x PBS, pH 6.0. Cells or tissue sections were incubated at 37°C for 24 hours. After staining, cells were washed with PBS before being counted and imaged on the Leica Dmi8 microscope.
Mice were aged between 3-8 months and 20-30 g in weight and were housed in specific pathogen free cages. Animals were randomly distributed among treatment groups by assigning mice within the same cage to different treatment regimens. To minimise confounders, mouse treatment order was randomised within each cage. Male and female mice were distributed between all treatment groups since the chemicals used were directly injected and are not metabolized. Researchers were not blinded to the group allocation, but all attempts were made to analyse the data without knowing treatment conditions. […] Mice were then monitored daily and allowed to age until a humane endpoint was reached according to our IACUC protocol, which in this case was tumours of 2 cm in size. […]

The next data set deals with senescent A375 cells. Nature of the data set: Peptide efficacy in culture (MTS), senescent cells. The class given is cell-based, human. As to the method:
Cell lines were treated with chemotherapy, doxorubicin (Sigma, Cat. No. 2252) to induce senescence (200 nM for HCT116, 100 nM for B16-F10 and MCF7, 50 nM for SW480 and DLD-1, 40 nM for A375-Luc/iRFP and MCF10a). MCF7 cells were treated with CDK4/6 inhibitor, palbociclib (Selleck Chemicals: S1116) to induce senescence (5 µM). A375 cells were treated with Braf inhibitor, Dabrafenib (Selleck Chemicals: S2807), to induce senescence (10 µM). Peptide efficacy experiments were performed by seeding 10,000 – 20,000 cells in a 96-well plate. The cells were given doxorubicin twice to make the cells senescent. After removal of doxorubicin, the plate was treated with varying concentrations of peptide. The peptide was replenished daily for two days. Cellular proliferation was quantified using the Promega CellTiter 96™ AQueous One Solution Cell Proliferation Assay (MTS) after 2 hours according to the manufacturer's protocol (Promega, G3581). To control for the charge of ES2, ProteoJuice (Millipore Sigma, 71281) was used to deliver ES2 using the manufacturers protocol, except 50 µL of 2 mM ES2 was mixed with 25 µL of ProteoJuice. Varying concentrations of the mixture were administered to A375 cells along with a control of only ProteoJuice.

A short description of data set [2]: Systemic delivery to aged mice, blood counts, weight, plasma urea. The class given is in vivo, mouse.
Where [3] appears, read: aged mice (82 weeks), 3 mg ES2 via tail vein weekly for three weeks, n=5.

Entries after “also recorded” stand apart in the source; their conditions may differ. Where no end group is shown, it is not given here.

Consider “PRKGGRRRRAWGRRRRRRRRRRRRRRAPRKRLTLA [ES2]”, for which the “number of senescent cells in the liver (SA-β-gal activity)” value in data set [1] is given as “reduced the number of senescent cells in the liver by half”. In the data set with senescent A375 cells (A375 cells, ProteoJuice control experiment, highest concentration), this sequence came in with a cell death of 80%. The “effect of delivery with ProteoJuice on senolytic activity” value in the data set with senescent A375 cells (ES2 delivered with ProteoJuice vs ES2 alone, senescent A375 cells, n=5) is “had no effect on viability in senescent cells compared to ES2 alone; also recorded: no difference in senolytic activity”. Further, in the data set with senescent A375 cells (doxorubicin (40 nM)-induced senescent A375 cells, peptide replenished daily for two days, MTS, best fit polynomial, read-out: IC50^sen, concentration to kill 50% of senescent cells), the IC50 was ~7 µM. The “senolytic activity (in words)” value in the data set with senescent A375 cells (senescent vs dividing A375 cells) was “highest senolytic activity”. In addition, in data set [2] (setting [3]), the “change in weight of the mice” value was “no significant change” and the “changes in numbers of white blood cells, platelets, or red blood cells” value is listed as “non-significant changes”. Besides, the “toxicity after multiple doses” value in data set [2] (aged mice, 3 weekly i.v. doses) is “minimal toxicity”. Besides, in data set [2] (aged mice, endpoint, n=5), the plasma urea levels result was “while not significant, were reduced”.

(Values after publication PMC8546421, “Molecular modelling of the FOXO4-TP53 interaction to design senolytic peptides for the elimination of senescent cancer cells” (EBioMedicine, 2021).)
